Test results taken from ChEMBL document CHEMBL4813910, “Curse or Cure? A Perspective on the Developability of Aldehydes as Active Pharmaceutical Ingredients” (J Med Chem, 2020).
Each block holds one compound with its values, some of them ahead of it.

How the values were obtained:
[1] = Half life in human at 0.5 g, iv; type: ADME; settings: in vivo
[2] = Half life in human at 2 g, po; type: ADME; settings: in vivo
[3] = Drug excretion in human urine at 2 g, po measured within 24 hrs; type: ADME, organism-based; settings: in vivo
[4] = Cmax in human serum at 2 g, po; type: ADME, cell-free; set-up: route oral, dose 2 g
[5] = Volume of distribution at steady state in human at 0.5 g, iv; type: ADME; settings: in vivo
[6] = Renal clearance in human at 0.5 g, iv; type: ADME; settings: in vivo
[7] = Cmax in human at 0.5 g, iv; type: ADME; set-up: route intravenous, dose 0.5 g; settings: in vivo
[8] = Oral bioavailability in human at 2 g; type: ADME, organism-based; settings: in vivo
[9] = Cmax in human at 2 g, po; type: ADME; set-up: route oral, dose 2 g; settings: in vivo
[10] = Non-renal clearance in human at 0.5 g, iv; type: ADME; settings: in vivo
[11] = Total clearance in human at 0.5 g, iv; type: ADME; settings: in vivo
[12] = Protein binding in human plasma at 2 g, po; type: ADME, cell-free
[13] = AUC (0 to infinity) in human serum at 2 g, po; type: ADME, cell-free; set-up: route oral, time infinity, dose 2 g
[14] = Drug excretion in human urine at 0.5 g, iv measured within 24 hrs; type: ADME, organism-based; settings: in vivo
[15] = Tmax in human at 2 g, po; type: ADME; settings: in vivo
[16] = Tmax in human serum at 2 g, po; type: ADME
[17] = Volume of distribution at steady state in human at 20 mg/kg, IM; type: ADME, organism-based; settings: in vivo
[18] = Cmax in human at 20 mg/kg, IM; type: ADME, organism-based; set-up: route […], dose 20 mg/kg; settings: in vivo
[19] = Protein binding in human plasma at 20 mg/kg, IM; type: ADME, organism-based; settings: read-out: PPB (converted)
[20] = Drug excretion in human at 20 mg/kg, IM measured for 24 hrs; type: ADME, organism-based; settings: in vivo, read-out: Drug excretion
[21] = Renal clearance in human at 20 mg/kg, IM; type: ADME, organism-based; settings: in vivo
[22] = Half life in human at 20 mg/kg, IM; type: ADME, organism-based; settings: in vivo
[23] = Bioavailability in human at 20 mpk, IM; type: ADME, organism-based; settings: in vivo, dose 20 mg/kg
[24] = Tmax in human at 20 mg/kg, IM; type: ADME, organism-based; settings: in vivo
[25] = Half life in mouse plasma at 5 ug/ml incubated for 1 to 24 hrs by LC/MS/MS method; type: ADME, cell-free; settings: time 1-24 hrs, dose 5 µg/ml
[26] = AUC (0 to 10 hrs) in human at 40 mg, po BID cotreated with paclitaxel by HPLC method; type: ADME, organism-based; set-up: time < 10 hr, route oral, dose 40 mg; settings: in vivo
[27] = Protein binding in human plasma; type: ADME, cell-free
[28] = Clearance in dog at 0.5 mg/kg, iv by HPLC method; type: ADME, organism-based, Canis lupus familiaris; settings: in vivo
[29] = Tmax in human at 20 mg/kg, po measured up to 30 hrs by HPLC method; type: ADME, organism-based; settings: in vivo
[30] = Half life in human at 20 mg/kg, po measured up to 240 hrs by HPLC method; type: ADME, organism-based; settings: in vivo
[31] = Half life in human at 40 mg, po BID cotreated with paclitaxel by HPLC method; type: ADME, organism-based; settings: in vivo
[32] = AUC (0 to infinity) in human at 20 mg/kg, po measured up to 30 hrs by HPLC method; type: ADME, organism-based; set-up: route oral, dose 20 mg/kg, time <=30; settings: in vivo
[33] = Half life in dog plasma at 5 ug/ml incubated for 1 to 24 hrs by LC/MS/MS method; type: ADME, cell-free, Canis lupus familiaris; settings: time 1-24 hrs, dose 5 µg/ml
[34] = Cmax in human at 20 mg, po measured up to 240 hrs by HPLC method; type: ADME, organism-based; set-up: route oral, dose 20 mg, time <=240; settings: in vivo
[35] = Half life in human at 20 mg/kg, po measured up to 30 hrs by HPLC method; type: ADME, organism-based; settings: in vivo
[36] = Cmax in human at 20 mg/kg, po measured up to 30 hrs by HPLC method; type: ADME, organism-based; set-up: route oral, dose 20 mg/kg, time <=30; settings: in vivo
[37] = Half life in human plasma at 5 ug/ml incubated for 1 to 24 hrs by LC/MS/MS method; type: ADME, cell-free; settings: time 1-24 hrs, dose 5 µg/ml
[38] = Cmax in human at 40 mg, po BID cotreated with paclitaxel by HPLC method; type: ADME, organism-based; set-up: route oral, dose 40 mg; settings: in vivo
[39] = Tmax in human at 20 mg, po measured up to 240 hrs by HPLC method; type: ADME, organism-based; settings: in vivo
[40] = Clearance in human at 40 mg, po BID cotreated with paclitaxel by HPLC method; type: ADME, organism-based; settings: in vivo
[41] = AUC (0 to infinity) in human at 20 mg, po measured up to 240 hrs by HPLC method; type: ADME, organism-based; set-up: route oral, dose 20 mg, time <=240; settings: in vivo
[42] = Tmax in human erythrocytes at 2.8 g, po by liquid chromatography-tandem mass spectrometry method; type: ADME, organism-based, Erythrocyte
[43] = Tmax in human plasma at 2.8 g, po by liquid chromatography-tandem mass spectrometry method; type: ADME, organism-based
[44] = Cmax in human plasma at 2.8 g, po by liquid chromatography-tandem mass spectrometry method; type: ADME, organism-based; set-up: route oral, dose 2.8 g
[45] = Clearance in human at 2.8 g, po by liquid chromatography-tandem mass spectrometry method; type: ADME, organism-based; settings: in vivo
[46] = Induction of hemoglobin modification in human at 900 mg/day
[47] = Central volume of distribution in human at 2.8 g, po; type: ADME; settings: in vivo
[48] = AUC (0 to 24 hrs) in human plasma at 2.8 g, po by liquid chromatography-tandem mass spectrometry method; type: ADME, organism-based; set-up: time < 24 hr, route oral, dose 2.8 g
[49] = Ratio of drug level in human erythrocytes to plasma at 2.8 g, po; type: ADME
[50] = Cmax in human erythrocytes at 2.8 g, po by liquid chromatography-tandem mass spectrometry method; type: ADME, organism-based, Erythrocyte; set-up: route oral, dose 2.8 g

- t1/2 [1]: 5.54 h
- t1/2 [2]: 6.23 h
- Drug excretion [3]: 4.4%
- Cmax [4]: 3.7 µM
- Vdss [5]: 5.5 L/kg
- CL [6]: 144.2 mL/min
- Cmax [7]: 2.7 µM
- F [8]: 10%
- Cmax [9]: 2 µM
- CL [10]: 887 mL/min
- CL [11]: 1.14 L/min
- PPB [12]: 48%
- AUC [13]: 12 µM·h
- Drug excretion [14]: 13.9%
- Tmax [15]: 4 h
- Tmax [16]: 3.3 h
Compound: SPIRAMYCIN

- Vdss [17]: 1.77 L/kg
- Cmax [18]: 43 µM
- fraction unbound [19]: 0.52
- dose excreted at 24 h [20]: 39%
- CL renal [21]: 30 mL/min
- half-life [22]: 5.3 h
- bioavailability [23]: 80%
- Tmax [24]: 0.5 h
Compound: [H]/N=C(/N)N[C@H]1[C@H](O)[C@@H](O)[C@H](O[C@@H]2O[C@@H](C)[C@](O)(C=O)[C@H]2O[C@@H]2O[C@@H](CO)[C@H](O)[C@@H](O)[C@@H]2NC)[C@@H](N/C(N)=N\[H])[C@@H]1O [STREPTOMYCIN]

Compound: Cc1cc2c(C(C)C)c(O)c(O)c(C=O)c2c(O)c1-c1c(C)cc2c(C(C)C)c(O)c(O)c(C=O)c2c1O [GOSSYPOL]
- half-life at 5 ug/ml [25]: < 1 h
- AUC at 10 h [26]: 6.81 µM·h
- PPB [27]: 63%
- fraction unbound ([27]; read-out: PPB (converted)): 0.61
- clearance [28]: 0.833 mL/min/kg
- CL ([28]; 0.5 mg/kg): 0.83 mL/min/kg
- Tmax [29]: 4.6 h
- half-life [30]: 133 h
- half-life [31]: 3.33 h
- AUC(0-inf) [32]: 6.08 µM·h
- half-life at 5 ug/ml [33]: < 1 h
- Cmax [34]: 1.75 µM
- half-life [35]: 4.55 h
- Cmax [36]: 0.799 µM
- half-life at 5 ug/ml [37]: < 1 h
- Cmax [38]: 1.27 µM
- Tmax [39]: 4.6 h
- CL/F [40]: 2.5 mL/min/kg
- AUC(0-inf) [41]: 29.2 µM·h

- Tmax [42]: 17.1 h
- Tmax [43]: 7.1 h
- Cmax [44]: 18.7 µM
- CL/F [45]: 0.09 mL/min/kg
- Activity [46]: 40%
- Vc [47]: 5.2 L/kg
- AUC(0-t) at 24 h [48]: 1280 µM·h
- Kp [49]: 67
- Cmax [50]: 1110 µM
Compound: CC(C)n1nccc1-c1ncccc1COc1cccc(O)c1C=O [VOXELOTOR]
